Measurements reported in patent publication US7323469B2, “7H-pyrrolo[2,3-d]pyrimidine derivatives” (Novartis AG, priority 2001, dated 2008).

| SMILES | melting point [°C] |
| --- | --- |
| C[C@@H](Nc1ncnc2[nH]c(-c3ccc(CNC(=O)CN4CCCC4)cc3)cc12)c1ccccc1 [Example 41, N-{4-[4-((R)-1-Phenyl-ethylamino)-7H-pyrrolo[2,3-d]pyrimidin-6-yl]-benzyl}-2-pyrrolidin-1-yl-acetamide] | 196 to 198 |
| C[C@@H](Nc1ncnc2[nH]c(-c3ccc(CNC(=O)CN4CCOCC4)cc3)cc12)c1ccccc1 [Example 42, 2-Morpholin-4-yl-N-{4-[4-((R)-1-phenyl-ethyl-amino)-7H-pyrrolo[2,3-d]pyrimidin-6-yl]-benzyl}-acetamide] | 199 to 202 |
| C[C@@H](Nc1ncnc2[nH]c(-c3ccc(CNC(=O)CN(C)C)cc3)cc12)c1ccccc1 [Example 44, 2-Dimethylamino-N-{4-[4-((R)-1-phenyl-ethyl-amino)-7H-pyrrolo[2,3-d]pyrimidin-6-yl]-benzyl}-acetamide] | 263 to 266 |
| CCN1CCN(CC(=O)NCc2ccc(-c3cc4c(N[C@H](C)c5ccccc5)ncnc4[nH]3)cc2)CC1 [Example 45, 2-(4-Ethyl-piperazin-1-yl)-N-{4-[4-((R)-1-phenyl-ethylamino)-7H-pyrrolo[2,3-d]pyrimidin-6-yl]-benzyl}-acetamide] | 121 to 124 |
| CN(C)CC(=O)NCc1ccc(-c2cc3c(Nc4ccc(F)c(Cl)c4)ncnc3[nH]2)cc1 [Example 46, N-{4-[4-(3-Chloro-4-fluoro-phenylamino)-7H-pyrrolo[2,3-d]pyrimidin-6-yl]-benzyl}-2-dimethylamino-acetamide] | 278 to 282 |
| CCN1CCN(CC(=O)NCc2ccc(-c3cc4c(Nc5ccc(F)c(Cl)c5)ncnc4[nH]3)cc2)CC1 [Example 47, N-{4-[4-(3-Chloro-4-fluoro-phenylamino)-7H-pyrrolo[2,3-d]pyrimidin-6-yl]-benzyl}-2-(4-ethyl-piperazin-1-yl)-acetamide] | 245 to 247 |
| O=C(CN1CCCCC1)NCc1ccc(-c2cc3c(Nc4ccc(F)c(Cl)c4)ncnc3[nH]2)cc1 [Example 49, N-{4-[4-(3-Chloro-4-fluoro-phenylamino)-7H-pyrrolo[2,3-d]pyrimidin-6-yl]-benzyl}-2-piperidin-1-yl-acetamide] | 229 to 232 |
| CN1CCN(CC(=O)NCc2ccc(-c3cc4c(Nc5ccc(F)c(Cl)c5)ncnc4[nH]3)cc2)CC1 [Example 50, N-{4-[4-(3-Chloro-4-fluoro-phenylamino)-7H-pyrrolo[2,3-d]pyrimidin-6-yl]-benzyl}-2-(4-methyl-piperazin-1-yl)-acetamide] | 246 to 249 |
| CN(C)CC(=O)NCc1ccc(-c2cc3c(Nc4ccc(OCc5ccccc5)cc4)ncnc3[nH]2)cc1 [Example 51, N-{4-[4-(4-Benzyloxy-phenylamino)-7H-pyrrolo[2,3-d]pyrimidin-6-yl]-benzyl}-2-dimethylamino-acetamide] | 233 to 235 |
| O=C(CN1CCCCC1)NCc1ccc(-c2cc3c(Nc4ccc(OCc5ccccc5)cc4)ncnc3[nH]2)cc1 [Example 53, N-{4-[4-(4-Benzyloxy-phenylamino)-7H-pyrrolo[2,3-d]pyrimidin-6-yl]-benzyl}-2-piperidin-1-yl-acetamide] | 246 to 248 |
| C[C@@H](Nc1ncnc2[nH]c(-c3ccc(CNC(=O)CCN4CCCCC4)cc3)cc12)c1ccccc1 [Example 54, N-{4-[4-((R)-1-Phenyl-ethylamino)-7H-pyrrolo[2,3-d]pyrimidin-6-yl]-benzyl}-3-piperidin-1-yl-propionamide] | 140 |
| CCN(CC)CCC(=O)NCc1ccc(-c2cc3c(N[C@H](C)c4ccccc4)ncnc3[nH]2)cc1 [Example 55, 3-Diethylamino-N-{4-[4-((R)-1-phenyl-ethyl-amino)-7H-pyrrolo[2,3-d]pyrimidin-6-yl]-benzyl}-propionamide] | 175 to 177 |
| C[C@@H](Nc1ncnc2[nH]c(-c3ccc(CNC(=O)CCCN(C)C)cc3)cc12)c1ccccc1 [Example 56, 4-Dimethylamino-N-{4-[4-((R)-1-phenyl-ethyl-amino)-7H-pyrrolo[2,3-d]pyrimidin-6-yl]-benzyl}-butyramide] | 195 to 203 |
| C[C@@H](Nc1ncnc2[nH]c(-c3ccc(CNC(=O)c4ccccn4)cc3)cc12)c1ccccc1 [Example 57, Pyridine-2-carboxylic acid 4-[4-((R)-1-phenyl-ethylamino)-7H-pyrrolo[2,3-d]pyrimidin-6-yl]-benzylamide] | 221 to 223 |
| CCN(CC)CCC(=O)NCc1ccc(-c2cc3c(Nc4ccc(F)c(Cl)c4)ncnc3[nH]2)cc1 [Example 58, N-{4-[4-(3-Chloro-4-fluoro-phenylamino)-7H-pyrrolo[2,3-d]pyrimidin-6-yl]-benzyl}-3-diethylamino-propionamide] | 229 to 232 |
| O=C(NCc1ccc(-c2cc3c(Nc4ccc(F)c(Cl)c4)ncnc3[nH]2)cc1)c1ccccn1 [Example 59, Pyridine-2-carboxylic acid 4-[4-(3-chloro-4-fluoro-phenylamino)-7H-pyrrolo[2,3-d]pyrimidin-6-yl]-benzylamide] | 340 to 342 |
| O=C(CCN1CCCCC1)NCc1ccc(-c2cc3c(Nc4ccc(F)c(Cl)c4)ncnc3[nH]2)cc1 [Example 61, N-{4-[4-(3-Chloro-4-fluoro-phenylamino)-7H-pyrrolo[2,3-d]pyrimidin-6-yl]-benzyl}-3-piperidin-1-yl-propionamide] | 230 to 235 |

| SMILES | melting point [°C] |
| --- | --- |
| CN(C)CC(=O)NCc1cccc(-c2cc3c(Nc4ccc(F)c(Cl)c4)ncnc3[nH]2)c1 [Example 64, N-{3-[4-(3-Chloro-4-fluoro-phenylamino)-7H-pyrrolo[2,3-d]pyrimidin-6-yl]-benzyl}-2-dimethylamino-acetamide] | 272 to 273 |
| CN1CCN(CC(=O)NCc2cccc(-c3cc4c(Nc5ccc(F)c(Cl)c5)ncnc4[nH]3)c2)CC1 [Example 65, N-{3-[4-(3-Chloro-4-fluoro-phenylamino)-7H-pyrrolo[2,3-d]pyrimidin-6-yl]-benzyl}-2-(4-methyl-piperazin-1-yl)-acetamide] | 214 |
| O=C(CN1CCCCC1)NCc1cccc(-c2cc3c(Nc4ccc(F)c(Cl)c4)ncnc3[nH]2)c1 [Example 66, N-{3-[4-(3-Chloro-4-fluoro-phenylamino)-7H-pyrrolo[2,3-d]pyrimidin-6-yl]-benzyl}-2-piperidin-1-yl-acetamide] | 252 to 254 |
| Cc1ccc(Nc2ncnc3[nH]c(-c4cccc(CN5CCN(C)CC5)c4)cc23)cc1O [Example 67, 2-Methyl-5-{6-[3-(4-methyl-piperazin-1-ylmethyl)-phenyl]-7H-pyrrolo[2,3-d]pyrimidin-4-ylamino}-phenol] | 256 to 258 |
| COc1ccc(Nc2ncnc3[nH]c(-c4cccc(CN5CCN(C)CC5)c4)cc23)cc1O [Example 69, 2-Methoxy-5-{6-[3-(4-methyl-piperazin-1-ylmethyl)-phenyl]-7H-pyrrolo[2,3-d]pyrimidin-4-ylamino}-phenol] | 251 to 252 |
| Cc1ccc(Nc2ncnc3[nH]c(-c4ccc(CN5CCN(C)CC5)cc4)cc23)cc1O [Example 72, 2-Methyl-5-{6-[4-(4-methyl-piperazin-1-ylmethyl)-phenyl]-7H-pyrrolo[2,3-d]pyrimidin-4-ylamino}-phenol] | > 300 |
| C[C@@H](Nc1ncnc2[nH]c(-c3ccc(CN(C)C)cc3)cc12)c1ccc(Cl)cc1 [Example 76, [(R)-1-(4-Chloro-phenyl)-ethyl]-[6-(4-dimethylaminomethyl-phenyl)-7H-pyrrolo[2,3-d]pyrimidin-4-yl]-amine] | 273 to 274 |
| C[C@@H](Nc1ncnc2[nH]c(-c3ccc(CN4CCN(C)CC4)cc3)cc12)c1ccc(Cl)cc1 [Example 77, [(R)-1-(4-Chloro-phenyl)-ethyl]-{6-[4-(4-methyl-piperazin-1-ylmethyl)-phenyl]-7H-pyrrolo[2,3-d]pyrimidin-4-yl}-amine] | 232 to 233 |
| C[C@@H](Nc1ncnc2[nH]c(-c3ccc(CN(CCO)CCO)cc3)cc12)c1ccccc1 [Example 82, 2-((2-Hydroxy-ethyl)-{4-[4-((R)-1-phenyl-ethylamino)-7H-pyrrolo[2,3-d]pyrimidin-6-yl]-benzyl}-amino)-ethanol] | 194 to 197 |
| CCN1CCN(Cc2ccc(-c3cc4c(NCc5cccc(Cl)c5)ncnc4[nH]3)cc2)CC1 [Example 83, (3-Chloro-benzyl)-{6-[4-(4-ethyl-piperazin-1-ylmethyl)-phenyl]-7H-pyrrolo[2,3-d]pyrimidin-4-yl}-amine] | 241 to 243 |
| Clc1cccc(CNc2ncnc3[nH]c(-c4ccc(CN5CCCCC5)cc4)cc23)c1 [Example 85, (3-Chloro-benzyl)-[6-(4-piperidin-1-ylmethyl-phenyl)-7H-pyrrolo[2,3-d]pyrimidin-4-yl]-amine] | 234 to 235 |
| CCN(CC)Cc1ccc(-c2cc3c(NCc4cccc(Cl)c4)ncnc3[nH]2)cc1 [Example 87, (3-Chloro-benzyl)-[6-(4-diethylaminomethyl-phenyl)-7H-pyrrolo[2,3-d]pyrimidin-4-yl]-amine] | 231 to 233 |
| Clc1cccc(CNc2ncnc3[nH]c(-c4ccc(CN5CCCC5)cc4)cc23)c1 [Example 88, (3-Chloro-benzyl)-[6-(4-pyrrolidin-1-ylmethyl-phenyl)-7H-pyrrolo[2,3-d]pyrimidin-4-yl]-amine] | 222 to 225 |
| CN1CCN(Cc2ccc(-c3cc4c(NCc5cccc(Cl)c5)ncnc4[nH]3)cc2)CC1 [Example 89, (3-Chloro-benzyl)-{6-[4-(4-methyl-piperazin-1-ylmethyl)-phenyl]-7H-pyrrolo[2,3-d]pyrimidin-4-yl}-amine] | 235 to 237 |
| CN(C)Cc1ccc(-c2cc3c(NCc4ccccc4Cl)ncnc3[nH]2)cc1 [Example 90, (2-Chloro-benzyl)-[6-(4-dimethylaminomethyl-phenyl)-7H-pyrrolo[2,3-d]pyrimidin-4-yl]-amine] | 256 to 258 |
| CCN1CCN(Cc2ccc(-c3cc4c(NCc5ccccc5Cl)ncnc4[nH]3)cc2)CC1 [Example 91, (2-Chloro-benzyl)-{6-[4-(4-ethyl-piperazin-1-ylmethyl)-phenyl]-7H-pyrrolo[2,3-d]pyrimidin-4-yl}-amine] | 255 to 256 |
